Legend:
[1] = target: T1, RARα (Homo sapiens, UniProt P10276); assay: Ligand binding assay; parameters: expressed in transfected cells; host or cells: CV1 cells; settings: read-out: Kd (nanomolar) RARα
T1 sequence (P10276 1-462): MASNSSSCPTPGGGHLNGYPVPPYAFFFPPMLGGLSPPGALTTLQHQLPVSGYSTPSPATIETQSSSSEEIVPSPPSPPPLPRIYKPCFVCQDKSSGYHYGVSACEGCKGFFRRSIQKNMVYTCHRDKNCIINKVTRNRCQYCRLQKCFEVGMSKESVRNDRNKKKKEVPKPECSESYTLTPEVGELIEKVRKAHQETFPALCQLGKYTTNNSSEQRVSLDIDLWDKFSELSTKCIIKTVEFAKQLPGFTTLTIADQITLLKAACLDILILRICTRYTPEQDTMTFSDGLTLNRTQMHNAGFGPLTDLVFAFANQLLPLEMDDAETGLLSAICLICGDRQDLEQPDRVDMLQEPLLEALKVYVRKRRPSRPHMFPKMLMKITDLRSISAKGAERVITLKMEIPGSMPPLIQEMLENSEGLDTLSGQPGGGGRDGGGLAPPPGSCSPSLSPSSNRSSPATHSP
Source text: (§1) A holoreceptor transactivation assay and a ligand binding assay which measure the antagonist/agonist like activity of the compounds of the invention, or their ability to bind to the several retinoid receptor subtypes, respectively, are described in published PCT Application No. WO93/11755 (particularly on pages 30-33 and 37-41) published on Jun. 24, 1993, the specification of which is also incorporated herein by reference. A description of the holoreceptor transactivation assay is also provided below.
(§2) CV1 cells (5,000 cells/well) were transfected with an RAR reporter plasmid MTV-TREp-LUC (50 ng) along with one of the RAR expression vectors (10 ng) in an automated 96-well format by the calcium phosphate procedure of Heyman et al. Cell 68: 397-406. For RXR-α and RXR-γ transactivation assays, an RXR-responsive reporter plasmid CRBPII-tk-LUC (50 ng) along with the appropriate RXR expression vectors (10 ng) was used substantially as described by Heyman et al. above, and Allegretto et al. J. Biol. Chem. 268: 26625-26633. For RXR-β transactivation assays, an RXR-responsive reporter plasmid CPRE-tk-LUC ([…]) along with RXR-β expression vector ([…]) was used as described in above. These reporters contain DRI elements from human CRBPII and certain DRI elements from promotor, respectively (see Mangelsdorf et al. The Retinoids: Biology Chemistry and Medicine, pp. 319-349, Raven Press Ltd., New York and Heyman et al., cited above). A β-galactosidase (50 ng) expression vector was used as an internal control in the transfections to normalize for variations in transfection efficiency. The cells were transfected in triplicate for 6 hours, followed by incubation with retinoids for 36 hours, and the extracts were assayed for luciferase and […] activities. The detailed experimental procedure for holoreceptor transactivations has been described in Heyman et al. above, and Allegretto et al. cited above. The results obtained in this assay are expressed in EC50 numbers, as they are also in the chimeric receptor transactivation assay. The Heyman et al. Cell 68: 397-406, Allegretto et al. J. Biol. Chem. 268: 26625-26633, and Mangelsdorf et al. The Retinoids: Biology, Chemistry, and Medicine, pp. 319-349, Raven Press Ltd., New York, are expressly incorporated herein by reference. The results of ligand binding assay are expressed in Kd numbers. (See Cheng et al. Biochemical Pharmacology 22: 3099-3108, expressly incorporated herein by reference.) […]

[2] = target: T2, RARγ (Homo sapiens, UniProt P13631); assay: Ligand binding assay; parameters: expressed in transfected cells; host or cells: CV1 cells; settings: read-out: Kd (nanomolar) RARγ
T2 sequence (P13631 1-454): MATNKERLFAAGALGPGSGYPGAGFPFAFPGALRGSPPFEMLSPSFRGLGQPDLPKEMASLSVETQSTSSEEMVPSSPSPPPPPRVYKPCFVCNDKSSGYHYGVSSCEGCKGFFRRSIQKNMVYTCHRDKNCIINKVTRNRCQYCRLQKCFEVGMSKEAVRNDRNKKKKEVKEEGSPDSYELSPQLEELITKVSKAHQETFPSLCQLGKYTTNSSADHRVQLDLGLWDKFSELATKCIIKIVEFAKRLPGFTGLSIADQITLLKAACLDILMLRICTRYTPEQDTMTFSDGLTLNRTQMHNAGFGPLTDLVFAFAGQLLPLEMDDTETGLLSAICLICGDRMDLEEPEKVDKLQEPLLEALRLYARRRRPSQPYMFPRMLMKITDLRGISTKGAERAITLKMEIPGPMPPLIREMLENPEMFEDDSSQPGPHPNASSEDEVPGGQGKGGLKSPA
Source text: as §1, §2

[3] = target: T2, RARγ; assay: [3H]-ATRA displacement assay, baculovirus expressed receptor; type: binding; parameters: made in house; host or cells: baculovirus expression system
[4] = target: T3, RARβ (Homo sapiens, UniProt P10826); assay: Ligand binding assay; settings: read-out: Kd (nanomolar) RARβ
T3 sequence (P10826 1-455): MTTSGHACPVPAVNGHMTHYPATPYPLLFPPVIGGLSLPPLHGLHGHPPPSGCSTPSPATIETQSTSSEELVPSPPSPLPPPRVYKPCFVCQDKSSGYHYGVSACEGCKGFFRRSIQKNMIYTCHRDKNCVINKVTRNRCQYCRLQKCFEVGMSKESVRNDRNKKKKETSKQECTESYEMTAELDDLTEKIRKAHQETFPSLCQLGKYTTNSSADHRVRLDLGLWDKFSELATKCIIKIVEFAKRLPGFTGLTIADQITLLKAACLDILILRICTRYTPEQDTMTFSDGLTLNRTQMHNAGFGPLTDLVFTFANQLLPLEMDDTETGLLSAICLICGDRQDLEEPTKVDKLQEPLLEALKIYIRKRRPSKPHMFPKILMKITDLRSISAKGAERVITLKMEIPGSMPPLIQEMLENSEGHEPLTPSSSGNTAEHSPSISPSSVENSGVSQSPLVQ
Source text: as §1, §2

[5] = system: RAR-γ-VP-16; assay: Example 12: assay for retinoid negative hormones, CV-1 cells; type: cell-based; settings: 10^−9 to 10^−6 M, 18 hours, no agonist
[6] = Table 12, relative affinity, competition of 3H-ATRA binding, Cheng-Prussof equation

| SMILES | Kd [1] [nM] | Kd [2] [nM] | Kd [3, 6] [nM] | Kd [4] [nM] | RAR-γ-VP-16 constitutive activity (negative hormone activity) [5] | Kd ([3]; Table 11) [nM] |
| --- | --- | --- | --- | --- | --- | --- |
| CC1(C)CC=C(c2ccc(C(F)(F)F)cc2)c2cc(C#Cc3ccc(C(=O)O)cc3)ccc21 [Compound 23, 4-[(5,6-Dihydro-5,5-dimethyl-8-(4-trifluoromethylphenyl)-2-naphthalenyl)ethynyl]benzoic acid] | 32 | 31 | 25 | 25 | dose dependent repression of RAR-γ-VP-16 constitutive activity | – |
| CC1(C)CC=C(c2ccc(Cl)cc2)c2cc(C#Cc3ccc(C(=O)O)cc3)ccc21 [Compound 25, 4-[(5,6-Dihydro-5,5-dimethyl-8-(4-chlorophenyl)-2-naphthalenyl)ethynyl]benzoic acid] | 50 | 20 | 13 | 17 | dose dependent repression of RAR-γ-VP-16 constitutive activity | – |
| Cc1ccc(C2=CCC(C)(C)c3ccc(C#Cc4ccc(C(=O)O)cc4)cc32)cc1 [Compound 60, 4-[(5,6-dihydro-5,5-dimethyl-8-(4-methylphenyl)-2-naphthalenyl)ethynyl]benzoic acid] | 1.5 | 3.3 | 6 | 1.9 | dose dependent repression of RAR-γ-VP-16 constitutive activity | 3 |
| CC(C)(C)c1ccc(C2=CCC(C)(C)c3ccc(C#Cc4ccc(C(=O)O)cc4)cc32)cc1 [Compound 61, 4-[(5,6-Dihydro-5,5-dimethyl-8-(4-(1,1-dimethylethyl)phenyl)-2-naphthalenyl)ethynyl]benzoic acid] | 96 | 16 | – | 15 | – | – |
| Cc1ccc(C2=CCC(C)(C)c3cc(C(=O)C=Cc4ccc(C(=O)O)cc4)ccc32)cc1 [Compound 101, 4-[3-oxo-3-(7,8-dihydro-5-(4-methylphenyl)-8,8-dimethyl-2-naphthalenyl)-1-propenyl]-benzoic acid] | 750 | 637 | – | 143 | – | – |
| CC1(C)CC=C(c2ccccc2)c2ccc(C(=O)C=Cc3ccc(C(=O)O)cc3)cc21 [Compound 103, 4-[3-oxo-3-(7,8-dihydro-5-phenyl-8,8-dimethyl-2-naphthalenyl)-1-propenyl]-benzoic acid] | 301 | 261 | – | 273 | – | – |

Reference: patent US6469028B1, “Synthesis and use of retinoid compounds having negative hormone and/or anatgonist activities” (Allergan, Inc., priority 1995, dated 2002)
